Columns and labels:
[1] = Oxidation stability after gamma irradiation and aging, by FTIR oxidation index; assay type: physicochemical; conditions: 0.5 weight % in UHMWPE
Method: UHMWPE GUR 1050 (Ticona Inc, Bayport, Tex., USA) in powder form was mixed with 0.5 weight % of Lipoic Acid in powder form (Talamonti, Italy, stock n. 1050919074). The mixture was then moulded in a cell at 160° C. and at a pressure of 200 MPa.
A comparative sample was made with the same UHMWPE GUR 1050 only, namely without mixing it with lipoic acid.
Each sample of UHMWPE, virgin and doped with lipoic acid, was gamma irradiated to a dose of 30 kGy (Isomedix, Northborough, Mass.), then was processed into cylindrical pins of 20 mm length and 9 mm diameter.
Each sample, virgin and doped, was then aged at 80° C. in a convection oven for 5 weeks, in air (ASTM standard F2003-02). After aging and oxidation, thin sections of […] thickness of each sample were prepared using a Leitz Wetzlar Sledge Microtome (Leica, Nussloch, Germany). The irradiated and aged sections of cylindrical pins samples were then analysed by means of Fourier Transform Infrared Spectroscopy (FTIR). The IR analysis was performed using a Nicolet Magna 860 spectrometer.
The effect of aging on the oxidation of virgin UHMWPE and UHMWPE doped with lipoic acid is shown in FIG. 2 and FIG. 3, respectively. An oxidation index OI was defined as the ratio of the area under 1740 cm^−1 carbonyl and 1370 cm^−1 methylene absorbance peaks.

[2] = Thermal stability of Lipoic Acid inside UHMWPE, by FTIR spectra; assay type: physicochemical; conditions: UHMWPE with 0.5% wt lipoic acid heated at 150° C. for 2 hours or 200° C. for 24 hours
Method: UHMWPE GUR 1050 (Ticona Inc, Bayport, Tex., USA) in powder form was mixed with 0.5 weight % of Lipoic Acid in powder form (Talamonti, Italy, stock n. 1050919074). The mixture was then moulded in a cell at 160° C. and at a pressure of 200 MPa. The purpose of these examples was to investigate the presence and stability of Lipoic Acid inside UHMWPE with which it was pre-mixed. UHMWPE commonly melts at 138° C., but Lipoic Acid melts at about 65° C. Therefore, to check the Lipoic Acid stability into the UHMWPE at high temperatures a Lipoic Acid-doped UHMWPE was tested at 150° C. and 200° C. […] Line B represents the spectrum of UHMWPE doped with LA, heated at 150° C. for 2 hours, then cooled at room temperature, in which the spectrum of pure UHMWPE was detracted as baseline.

[3] = cited from earlier work

## O=C(O)CCCCC1CCSS1 (centres unmarked) [Lipoic Acid, Lipoic acid]
[1]
  antioxidant effectiveness in UHMWPE: effective as antioxidant
[2]
  stability of Lipoic Acid (FTIR spectrum): substantially unchanged
[2]; listed as lipoic acid
  stability of Lipoic Acid (FTIR spectrum): stable
[3]; 100 to 600 mg/day for 3 to 6 months
  toxicity on human beings: low toxicity
[3]; dose of 50 mg/day
  side effects: no side effect reported
